Experiments:
Assay type in all cases: functional
A549 = test: Anticancer activity against human A549 cells assessed as cell growth promotion at 10^-5 M after 48 hrs by SRB assay relative to control
K562 = test: Anticancer activity against human K562 cells assessed as cell growth promotion at 10^-5 M after 48 hrs by SRB assay relative to control
OVCAR-8 = test: Anticancer activity against human OVCAR8 cells assessed as cell growth promotion at 10^-5 M after 48 hrs by SRB assay relative to control
NCI-H226 = test: Anticancer activity against human NCI-H226 cells assessed as cell growth promotion at 10^-5 M after 48 hrs by SRB assay relative to control
M14 = test: Anticancer activity against human M14 cells assessed as cell growth promotion at 10^-5 M after 48 hrs by SRB assay relative to control
SNB-19 = test: Anticancer activity against human SNB19 cells assessed as cell growth promotion at 10^-5 M after 48 hrs by SRB assay relative to control
UO-31 = test: Anticancer activity against human UO31 cells assessed as cell growth promotion at 10^-5 M after 48 hrs by SRB assay relative to control
HCT-116 = test: Anticancer activity against human HCT116 cells assessed as cell growth promotion at 10^-5 M after 48 hrs by SRB assay relative to control
HOP-62 = test: Anticancer activity against human HOP62 cells assessed as cell growth promotion at 10^-5 M after 48 hrs by SRB assay relative to control
MDA-MB-468 = test: Anticancer activity against human MDA-MB-468 cells assessed as cell growth promotion at 10^-5 M after 48 hrs by SRB assay relative to control
NCI-H460 = test: Anticancer activity against human NCI-H460 cells assessed as cell growth promotion at 10^-5 M after 48 hrs by SRB assay relative to control
Malme-3M = test: Anticancer activity against human MALME-3M cells assessed as cell growth promotion at 10^-5 M after 48 hrs by SRB assay relative to control
MDA-MB-231 = test: Anticancer activity against human MDA-MB-231 cells assessed as cell growth promotion at 10^-5 M after 48 hrs by SRB assay relative to control
NCI-H322M = test: Anticancer activity against human NCI-H322M cells assessed as cell growth promotion at 10^-5 M after 48 hrs by SRB assay relative to control
CCRF-CEM = test: Anticancer activity against human CCRF-CEM cells assessed as cell growth promotion at 10^-5 M after 48 hrs by SRB assay relative to control
OVCAR-4 = test: Anticancer activity against human OVCAR4 cells assessed as cell growth promotion at 10^-5 M after 48 hrs by SRB assay relative to control
SNB-75 = test: Anticancer activity against human SNB75 cells assessed as cell growth promotion at 10^-5 M after 48 hrs by SRB assay relative to control

| Structure (SMILES) | Activity (A549) [%] | Activity (K562) [%] | Activity (OVCAR-8) [%] | Activity (NCI-H226) [%] | Activity (M14) [%] | Activity (SNB-19) [%] | Activity (UO-31) [%] | Activity (HCT-116) [%] | Activity (HOP-62) [%] | Activity (MDA-MB-468) [%] | Activity (NCI-H460) [%] | Activity (Malme-3M) [%] | Activity (MDA-MB-231) [%] | Activity (NCI-H322M) [%] | Activity (CCRF-CEM) [%] | Activity (OVCAR-4) [%] | Activity (SNB-75) [%] |
| --- | --- | --- | --- | --- | --- | --- | --- | --- | --- | --- | --- | --- | --- | --- | --- | --- | --- |
| COc1ccc(OC)c(/C=C/c2nc3ccccc3nc2SCc2nc3ccccc3[nH]2)c1 | 90.64 | 90.78 | 92.09 | 87.18 | 99.58 | 98.9 | 60.33 | 73.92 | 87.33 | 98.24 | 94.48 | 108 | 96.56 | 94.87 | 81.59 |  |  |
| CN(C)c1ccc(/C=C/c2nc3ccccc3nc2SCc2nc3ccccc3[nH]2)cc1 | 97.05 | 105 | 108 | 105 | 92.21 | 96.81 | 84.96 | 87.81 | 100 | 109 | 104 | 102 | 89.23 | 97.59 | 81.79 |  |  |
| Oc1ccccc1/C=C/c1nc2ccccc2nc1SCc1nc2ccccc2[nH]1 | 77.16 | 77.33 | 75.12 | 79.35 | 70.2 | 76.6 | 49.71 | 65.39 | 73.71 | 59.53 | 80.34 | 83.19 | 53.69 | 80.01 | 41.14 | 25.22 |  |
| C(=C\c1nc2ccccc2nc1SCc1nc2ccccc2[nH]1)/c1ccccc1 | 64.03 | 61.44 | 82.17 | 65.68 | 76.83 | 82.87 | 58.6 | 35.79 | 88.3 | 39.93 | 70.22 | 63.63 | 77.23 | 86.4 | 89.58 | 2.71 |  |
| Oc1ccc(/C=C/c2nc3ccccc3nc2SCc2nc3ccccc3[nH]2)cc1 | 85.66 | 107 | 100 | 99.33 | 100 | 97.81 | 85.96 | 89.77 | 101 | 114 | 95.51 | 86.88 | 95.18 |  | 77.99 | 107 | 93.68 |
| N#Cc1ccc(/C=C/c2nc3ccccc3nc2SCc2nc3ccccc3[nH]2)cc1 | 93.12 | 99.2 | 103 | 95.59 | 99.32 | 100 | 86.51 | 88.47 | 99.49 | 104 | 104 | 90.35 | 97.02 | 120 | 93.78 |  |  |
